The source of these data is ChEMBL document CHEMBL4610009, “Modification of the lead molecule: Tryptophan and piperidine appended triazines reversing inflammation and hyeperalgesia in rats” (Bioorg Med Chem, 2020).

In brackets after ≈: the same amount, converted by molar mass. Activity calls are given as the source filed them. The rule behind the calls is not given here. Where only a bound is given, the exact number is not on record here.

Data set [1] is described as follows: Solubility of compound in pure water. Format: physicochemical.
Data set [2] in a line: Protein binding in plasma (unknown origin). Type of data set: ADME, cell-free. Conditions: read-out: PPB (converted).
A short description of data set [3]: Acute toxicity in Wistar rat assessed as effect on liver at 2000 mg/kg, po measured after 14 days by hematoxylin-eosin staining based light microscopy. Format: organism-based. Conditions: in vivo, 336 h.
For data set [4], the target named is T1, Prostaglandin G/H synthase 2 (Rattus norvegicus) (UniProt P35355).
T1 sequence (whole entry): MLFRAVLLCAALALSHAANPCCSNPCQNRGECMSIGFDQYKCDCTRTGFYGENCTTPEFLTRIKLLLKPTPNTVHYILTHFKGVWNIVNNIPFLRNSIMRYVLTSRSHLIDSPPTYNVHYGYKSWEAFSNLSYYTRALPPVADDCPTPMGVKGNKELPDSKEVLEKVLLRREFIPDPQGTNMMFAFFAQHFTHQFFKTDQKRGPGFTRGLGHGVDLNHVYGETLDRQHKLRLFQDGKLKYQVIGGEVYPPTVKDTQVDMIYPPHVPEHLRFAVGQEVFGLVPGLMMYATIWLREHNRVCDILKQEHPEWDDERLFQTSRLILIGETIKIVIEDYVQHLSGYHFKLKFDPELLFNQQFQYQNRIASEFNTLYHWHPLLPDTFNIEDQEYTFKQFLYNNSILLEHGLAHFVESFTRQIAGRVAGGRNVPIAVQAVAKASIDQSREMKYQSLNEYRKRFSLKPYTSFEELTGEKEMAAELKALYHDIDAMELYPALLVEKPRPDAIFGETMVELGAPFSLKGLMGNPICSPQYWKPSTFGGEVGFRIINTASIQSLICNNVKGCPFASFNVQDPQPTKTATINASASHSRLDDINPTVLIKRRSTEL
Briefly: In vivo inhibition of COX2 in Wistar rat assessed as reduction in formalin-induced COX2 expression at 10 mg/kg, ip incubated for 30 mins followed by formalin addition and measured after 2 hrs by immunofluorescence based assay. Type of data set: functional, organism-based.

Data set [5] deals with Rattus norvegicus. The data set can be described thus: Analgesic activity in Wistar rat assessed as reduction in acetic acid-induced writhing at 10 mg/kg, ip incubated for 30 mins followed by acetic acid addition and observed for 30 mins relative to control. Format: functional. Conditions: 0.5 h.
Data set [6] is described as follows: Drug absorption in human intestine. Type of data set: ADME, tissue-based. Conditions: read-out: Drug absorption.
Data set [7] in a line: Acute toxicity in Wistar rat assessed as behavioral alterations at 2000 mg/kg, po observed for 14 days. Conditions: in vivo, 336 h. Format: organism-based.
Data set [8] can be described thus: Acute toxicity in Wistar rat assessed as effect on kidney at 2000 mg/kg, po measured after 14 days by hematoxylin-eosin staining based light microscopy. Type of data set: organism-based. The note with it: in vivo, 336 h.
Data set [9] deals with T2, Prostaglandin G/H synthase 1 (Ovis aries, UniProt P05979).
T2 sequence (P05979 whole entry): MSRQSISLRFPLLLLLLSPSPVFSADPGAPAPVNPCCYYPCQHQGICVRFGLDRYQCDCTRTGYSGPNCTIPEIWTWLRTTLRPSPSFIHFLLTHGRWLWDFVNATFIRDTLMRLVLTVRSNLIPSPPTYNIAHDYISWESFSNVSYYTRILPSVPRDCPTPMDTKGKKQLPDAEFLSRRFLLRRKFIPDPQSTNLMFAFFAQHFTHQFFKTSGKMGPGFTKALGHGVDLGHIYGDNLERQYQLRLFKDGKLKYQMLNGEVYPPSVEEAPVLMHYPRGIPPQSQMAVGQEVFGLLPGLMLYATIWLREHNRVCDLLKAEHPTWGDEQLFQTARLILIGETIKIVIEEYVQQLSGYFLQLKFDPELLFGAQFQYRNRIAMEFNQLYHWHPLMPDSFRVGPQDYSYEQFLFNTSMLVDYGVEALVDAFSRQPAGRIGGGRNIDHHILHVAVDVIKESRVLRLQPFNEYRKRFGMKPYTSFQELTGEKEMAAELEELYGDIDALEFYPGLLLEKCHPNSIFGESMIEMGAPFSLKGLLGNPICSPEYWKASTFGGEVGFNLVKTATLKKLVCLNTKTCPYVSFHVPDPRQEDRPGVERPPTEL
Briefly: Inhibition of ovine COX1 using arachidonic acid as substrate incubated for 10 mins followed by substrate addition and measured after 2 mins by EIA assay.

For data set [10], the system named is Rattus norvegicus. The data set can be described thus: Analgesic activity in Wistar rat assessed as reduction in formalin-induced flitching in neurogenic phase at 10 mg/kg, ip incubated for 30 mins followed by formalin addition and observed for 60 mins. Type of data set: functional, organism-based.
Data set [11] concerns the target Prostaglandin G/H synthase 1 (Homo sapiens) (UniProt P23219). The data set can be described thus: Inhibition of calcium ionophore-activated COX1 in human whole blood assessed as TXB2 level at 1 uM by ELISA. Type of data set: tissue-based.
Data set [12] can be described thus: Ratio of drug level in brain to blood (unknown origin). The note with it: read-out: BBR. Type of data set: ADME, tissue-based.
Data set [13] has as its system Rattus norvegicus. Briefly: Analgesic activity in Wistar rat assessed as reduction in formalin-induced flitching in inflammatory phase at 10 mg/kg, ip incubated for 30 mins followed by formalin addition and observed for 60 mins. Format: functional, organism-based.
The subject of data set [14] is Rattus norvegicus. Briefly: Analgesic activity in Wistar rat assessed as reduction in acetic acid-induced writhing at 10 mg/kg, ip incubated for 30 mins followed by acetic acid addition and observed for 30 mins. Type of data set: functional, organism-based. In general terms: Writhing tests count abdominal constrictions after an irritant is injected.

Prostaglandin G/H synthase 1 (Homo sapiens), sequence (P23219 whole entry): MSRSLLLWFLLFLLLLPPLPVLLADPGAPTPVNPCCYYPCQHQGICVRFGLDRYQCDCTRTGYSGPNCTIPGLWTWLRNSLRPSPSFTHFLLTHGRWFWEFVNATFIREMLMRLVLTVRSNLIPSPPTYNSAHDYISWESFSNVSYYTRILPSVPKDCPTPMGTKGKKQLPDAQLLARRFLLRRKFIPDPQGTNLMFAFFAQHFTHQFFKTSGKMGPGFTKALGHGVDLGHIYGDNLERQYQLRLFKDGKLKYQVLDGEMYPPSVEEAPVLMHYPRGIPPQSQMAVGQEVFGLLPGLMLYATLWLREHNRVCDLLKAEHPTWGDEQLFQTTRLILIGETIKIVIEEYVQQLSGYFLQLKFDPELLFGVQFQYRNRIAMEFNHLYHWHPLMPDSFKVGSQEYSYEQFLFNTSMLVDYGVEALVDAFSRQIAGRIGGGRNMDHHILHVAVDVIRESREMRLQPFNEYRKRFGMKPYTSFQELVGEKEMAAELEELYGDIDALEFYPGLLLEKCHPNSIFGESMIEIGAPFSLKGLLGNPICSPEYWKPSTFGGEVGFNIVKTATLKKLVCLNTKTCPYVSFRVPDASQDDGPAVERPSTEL

As usually defined, the solubility is the dissolved amount per volume that the medium holds. Lower therefore signals little dissolved substance. One may read the inhibition in vivo as the relative decrease from the control value, in per cent. Usually IC50 stands for the point on the concentration scale where inhibition reaches its midpoint. Lower therefore signals greater potency in that assay. In [1], `COC(=O)[C@@H](N)Cc1cn(-c2nc(Cl)nc(N3CCCCC3)n2)c2ccccc12` came in with a solubility of 740 µg/mL (≈ 1.78 mM). The fraction unbound in data set [2] was 0.149. In addition, the Activity result in data set [3] was “Non-Toxic”; in data set [7], “Non-Toxic”; in data set [8], “Non-Toxic”; in data set [11] it was 0.84 ng/mL. In addition, the inhibition entry in [4] was “Active”. For the same molecule, in the data set on Rattus norvegicus [5], the inhibition in vivo at 10 mg/kg came to 65%. Also, the Fa in data set [6] was 98.2%. The same molecule gave an IC50 in [9] above 10 µM. Moreover, the result in the data set with Rattus norvegicus [10] and with Rattus norvegicus [13] was Active. In [12], the Kp was determined as 0.66.
In data set [9], `COC(=O)[C@H](Cc1ccc(O)cc1)n1cc(COc2nc(Cl)nc(Nc3ccc(N4CCOCC4=O)cc3)n2)nn1` showed an IC50 above 10 µM.
`COC(=O)[C@H](Cc1ccccc1)n1cc(COc2nc(Cl)nc(N3CCOCC3)n2)nn1`: the IC50 in data set [9] is above 10 µM.
The molecule `Clc1nc(OCc2cn(Cc3ccccc3)nn2)nc(N2CCCC2)n1` registered an IC50 in data set [9] of 8 µM.
Regarding `COC(=O)[C@H](Cc1ccccc1)Nc1nc(Cl)nc(Nc2ccc(N3CCOCC3=O)cc2)n1`, the outcome with Rattus norvegicus [14] was Active. Moreover, the concentration for half-maximal inhibition (IC50) in [9] is above 10 µM.
As for `Clc1ccc(Nc2nc(Cl)nc(OCc3cn(Cc4ccccc4)nn3)n2)cc1`, the 50% inhibitory concentration (IC50) in [9] stood at 4 µM.
`COC(=O)[C@H](Cc1ccc(O)cc1)n1cc(COc2nc(Cl)nc(N3CCOCC3)n2)nn1` registered a 50% inhibitory concentration (IC50) in data set [9] above 10 µM.
On to `O=C1COCCN1c1ccc(Nc2nc(Cl)nc(N3CCCC3)n2)cc1`, for which, in [1], the solubility stood at 4910 µg/mL (≈ 13.1 mM). The fraction unbound in [2] is 0.143. Also, in data set [6], the Fa is 96.8%. In data set [9], the IC50 is above 10 µM. The Kp in data set [12] amounted to 0.01.
Take `COC(=O)[C@@H]1CCCN1c1nc(Cl)nc(Nc2ccc(N3CCOCC3=O)cc2)n1`: the result in the data set on Rattus norvegicus [14] was Active.
The molecule `COC(=O)[C@H](Cc1ccccc1)n1cc(COc2nc(Cl)nc(Nc3ccc(Cl)cc3)n2)nn1` had a half-maximal inhibitory concentration (IC50) in [9] of 5 µM.
Still for that read-out and setting: with `COC(=O)[C@H](Cc1ccc(O)cc1)n1cc(COc2nc(Cl)nc(N3CCCC3)n2)nn1` the figure was above 10 µM; with `COC(=O)[C@H](Cc1ccccc1)n1cc(COc2nc(Cl)nc(N3CCCC3)n2)nn1`, above 10 µM; with `COC(=O)[C@H](Cc1c[nH]c2ccccc12)n1cc(COc2nc(Cl)nc(N3CCCCC3)n2)nn1`, above 10 µM.
Take `N[C@@H](Cc1cn(-c2nc(Cl)nc(N3CCOCC3)n2)c2ccccc12)C(=O)O`: the solubility in [1] came to 5810 µg/mL (≈ 14.4 mM). For the same molecule, the fraction unbound in data set [2] was 0.324. Besides, the Fa in data set [6] was determined as 96.9%. Moreover, in data set [9], the IC50 worked out at 1 µM. Also, in data set [12], the Kp is 0.19.
With `COC(=O)[C@H](Cc1ccccc1)n1cc(COc2nc(Cl)nc(Nc3ccc(N4CCOCC4=O)cc3)n2)nn1`, it took 8 µM to reach half-maximal inhibition in [9] (IC50).
Take `COC(=O)[C@H](Cc1cn(-c2nc(Cl)nc(Nc3ccc(N4CCOCC4=O)cc3)n2)c2ccccc12)NC(=O)OC(C)(C)C`: the outcome in the data set on Rattus norvegicus [14] was Active.
In the case of `COc1ccc2c(c1)c(CC(=O)O)c(C)n2C(=O)c1ccc(Cl)cc1` [INDOMETHACIN], in the data set with Rattus norvegicus [5], the inhibition in vivo at 10 mg/kg came out at 70%. Moreover, the outcome with Rattus norvegicus [10] and in the data set on Rattus norvegicus [13] was Active. Further, in data set [11], the Activity amounted to 0.59 ng/mL.
In data set [9], `O=C1COCCN1c1ccc(Nc2nc(Cl)nc(OCc3cn(Cc4ccccc4)nn3)n2)cc1` gave an IC50 of 6 µM.
On the same count and under the same terms, with `Clc1nc(OCc2cn(Cc3ccccc3)nn2)nc(N2CCOCC2)n1` the figure was above 10 µM.
`COC(=O)[C@@H](N)Cc1cn(-c2nc(Cl)nc(Nc3ccc(N4CCOCC4=O)cc3)n2)c2ccccc12` gave a solubility in data set [1] of 30 µg/mL (≈ 0.0575 mM). The fraction unbound in [2] was 0.124. Moreover, the inhibition result in data set [4] was “Active”. In the data set with Rattus norvegicus [5], the inhibition in vivo at 10 mg/kg worked out at 73%. Further, the Fa in [6] turned out to be 97.2%. The same molecule showed a half-inhibitory concentration (IC50) in [9] above 10 µM. The result in the data set on Rattus norvegicus [10] and in the data set on Rattus norvegicus [13] was Active. The Activity in [11] was 0.9 ng/mL. For the same molecule, the Kp in [12] worked out at 0.09.
For the molecule `COC(=O)[C@@H](N)Cc1ccc(Oc2nc(Cl)nc(N3CCOCC3)n2)cc1`, the outcome in the data set on Rattus norvegicus [14] was Active.
Take `COC(=O)[C@@H](N)Cc1ccc(Oc2nc(Cl)nc(N3CCCCC3)n2)cc1`: the IC50 in [9] is above 10 µM.
For the molecule `CC[C@H](C)[C@H](Nc1nc(Cl)nc(Nc2ccc(N3CCOCC3=O)cc2)n1)C(=O)OC`, the result in the data set with Rattus norvegicus [14] was Active. Also, the IC50 in [9] is above 10 µM.
On to `COC(=O)[C@H](Cc1c[nH]c2ccccc12)n1cc(COc2nc(Cl)nc(N3CCOCC3)n2)nn1`, for which the half-inhibitory concentration (IC50) in data set [9] was above 10 µM.
Same read-out and setting: as for `O=C(O)c1ccccc1Nc1nc(Cl)nc(Nc2ccc(N3CCOCC3=O)cc2)n1`, the figure is above 10 µM.
